This is an account of results in publication PMC10714400, “Antimicrobial Peptide–Peptoid Hybrids with and without Membrane Disruption” (ACS Infectious Diseases, 2023).

≈ marks a conversion by molar mass, not a printed value. Like-named read-outs stand apart in the source and are kept apart here. Where a SMILES comes first, the peptide text is derived from it. [ ]: non-standard residue; d: D form. Nlys = NCCCCNCC(=O)O

The test system of data set [1] is human red blood cells (hRBC). In words: Minimum hemolytic concentration (MHC). It counts as cell-based.
From the text: We also measured minimal hemolysis concentrations (MHC) on human red blood cells by serial 2-fold dilution as an indication of toxicity against eukaryotic cells (Table 1).
Data set [2] has as its system P. aeruginosa PAO1. In words: NPN outer membrane permeability assay. To be noted: not told. The class given is cell-based, Pseudomonas aeruginosa. Here is the method:
Figure 5 Interactions of peptide–peptoid hybrids with bacterial outer and inner membranes of P. aeruginosa. (a, b) NPN outer membrane permeability assay. P. aeruginosa PAO1 bacteria were treated with increasing compound concentrations in the presence of 10 μM NPN. The fluorescence intensity (λex = 340 nm, λem = 415 nm) was measured within 5 min. Data represent the mean ± SD, n = 3. (c, d) DiSC3(5) inner membrane depolarization assay. P. aeruginosa PAO1 cells were treated with increasing compound concentrations in the presence of 2 μM DiSC3(5). The fluorescence intensity (λex = 610 nm, λem = 660 nm) was measured within 5 min after treatment, and the data represent mean ± SD, n = 3.
A single colony of P. aeruginosa PAO1 and E. coli W3110 was grown overnight while being shaken (150 rpm) in LB-broth (5 mL) at 37 °C. 100 μL of the overnight culture was regrown in 10 mL of LB broth with shaking (200 rpm) to the exponential phase (OD600 = 1, corresponding to 10^9 CFU/mL). Bacteria were washed three times with HEPES buffer (5 mM HEPES, 5 mM glucose, pH 7.4), but not diluted yet to their final concentration. 200 μL of peptide samples was added to the first well of 96-well plates (black wells, flat bottom, BRAND GmbH Wertheim, Germany), 100 μL of HEPES/glucose buffer with 10 μM N-phenyl-1-naphthylamine (NPN, purchased from Acros Organics) was added in all the wells, and the compounds were diluted serially by 1/2 (add a control with a final volume of 200 μL with 10 μM NPN in buffer only). Ca. 10 min before the measurement and the final dilution of the bacteria, the plates and the 10 μM NPN in HEPES/glucose buffer (for bacteria dilution) were incubated at 37 °C (prior to the dilution of the bacteria with buffer containing NPN 10 μM). Later, the bacteria were diluted to OD600 = 0.5 with the NPN in HEPES/glucose buffer. 100 μL of the bacterial suspension was added to each well. In this case, the final OD of bacteria was 0.25, the final concentration of the desired compound 64 μg/mL, and NPN 10 μM. The control wells are buffer containing NPN (10 μM, 200 μL) and bacterial suspension containing NPN in HEPES buffer. The plate was measured with a Tecan instrument Infinite M1000 within 5 min. The plate was enabled to shake for 5 s before measurement. The excitation wavelength used was 340 ± 5 nm, and emission wavelength was 415 ± 5 nm. The assay was repeated at least three times.

The test system of data set [3] is S. epidermis. An outline of the steps: (§1)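 Using MTT as a visual viability dye, MICs were scored as the lowest concentration with no visible growth. Prior to staining, ~5 × 10^5 CFU per well grew in MH medium for ca. 18 h at 37 °C under static conditions.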
In data set [4] the test system is S. aureus Newman. Put shortly:
as §1

The subject of data set [5] is S. maltophilia. Put shortly: as §1
In data set [6] the test system is B. cenocepacia. Put shortly:
as §1

Data set [7] deals with P. aeruginosa PA14. An outline of the steps: as §1
Data set [8] deals with A549 cells. Kind of data set: Cell viability assay by Alamar blue. It counts as cell-based. To be noted: CSV; read-out: Toxicity on A549 lung cancern cells. Here is the method: The data are represented as the mean value ± SD, n = 3. […] (c) Vesicle leakage assay for a selection of compounds. Lipid vesicles made of EYPG or EYPC were suspended in a buffer (10 mM TRIS, 107 mM NaCl, pH 7.4). After 45 s, the indicated compound was added to reach the desired concentration. After 240 s, 30 μL of 1.2% TritonX-100 was added for full fluorescein release. […] See Supporting Information for the full curves, all of the data, and procedures.
HEK293 cells were cultured and maintained in DMEM high glucose (Dulbecco’s modified Eagle medium, Sigma Aldrich) medium supplemented with 10% FBS (Sigma Aldrich) and 1% penicillin/streptomycin. A549 cells were cultured and maintained in RPMI-1640 medium (Sigma Aldrich), supplemented with 10% FBS (Sigma Aldrich) and 1% penicillin/streptomycin. The cells were handled and subcultured according to the manufacturer instructions. Cells were incubated in a humidified incubator at 37 °C in the presence of 5% CO2.
Assays on HEK293, A549 cells were performed as described earlier.[74] […]
Background: Resazurin is reduced to fluorescent resorufin, in cell work by metabolically active cells.

The molecule `CC(C)C[C@H](NC(=O)[C@H](CC(C)C)NC(=O)[C@H](CC(C)C)NC(=O)[C@H](CCCCN)NC(=O)[C@H](CC(C)C)NC(=O)[C@H](CC(C)C)NC(=O)CN(CCCCN)C(=O)[C@H](CC(C)C)NC(=O)[C@H](CC(C)C)NC(=O)CN(CCCCN)C(=O)CNCCCCN)C(N)=O` [EB6, kkLLkLLKLLL] (H-[Nlys][Nlys]LL[Nlys]LLKLLL-NH2) had an MHC in data set [1] of 250 µg/mL. Moreover, the “MHC (hemolysis)” value in data set [1] (red cells of human) fell in the range of 250 to 1000 µg/mL. In data set [2], the “Outer membrane permeabilization (NPN)” value is “permeabilized the outer membrane”. In data set [3] (4 h, pH 7.4), the “MIC S. epidermis, full MH at pH 7.4” value turned out to be 3 ug/mL. In addition, the “MIC S. epidermis” value in data set [3] (4 h, pH 8.5) is 2 µg/mL (≈ 1.51 µM); in data set [3] (pH 7.4), 2 to 4 µg/mL. Moreover, the “MIC S. aureus Newman, full MH at pH 7.4” value in data set [4] (Newman, 4 h, pH 7.4) is given as 8 ug/mL. Also, the “MIC S. aureus Newman” value in data set [4] (Newman, 4 h, pH 8.5) came to 2 µg/mL (≈ 1.51 µM); in data set [4] (Newman, pH 7.4), 8 µg/mL (≈ 6.05 µM). Besides, the “MIC S. maltophilia, full MH at pH 7.4” value in data set [5] (4 h, pH 7.4) worked out at 3 ug/mL. Further, the “MIC S. maltophilia” value in data set [5] (4 h, pH 8.5) was in the range of 2 to 4 µg/mL; in data set [5] (pH 7.4) it was 2 to 4 µg/mL. For the same molecule, in data set [6] (4 h, pH 7.4), the “MIC B. cenocepacia, full MH at pH 7.4” value is greater than 32 ug/mL. Further, in data set [6] (pH 7.4), the “MIC B. cenocepacia” value was greater than 32 µg/mL. Further, the “MIC P. aeruginosa PA14, full MH at pH 7.4” value in data set [7] (PA14, 4 h, pH 7.4) stood at 3 ug/mL. Besides, the “MIC P. aeruginosa PA14” value was 2 to 4 µg/mL in data set [7] (PA14, pH 7.4) and 2 µg/mL (≈ 1.51 µM) in data set [7] (PA14, pH 8.5). For the same molecule, the IC50 in data set [8] was 19 ± 1 µM.

As to “H-KKLLKLLKLLL-NH2 [ln65, reference compound]”, the MHC in data set [1] (CSV) was 125 µg/mL. Moreover, the “MIC S. epidermis, […] MH at pH 8.5” value in data set [3] (CSV, […] MH at pH 8.5) is on record as 1 ug/mL. In addition, the “MIC S. epidermis, full MH at pH 7.4” value in data set [3] (CSV, full MH at pH 7.4) came out at 2 ug/mL. For the same molecule, the “MIC S. epidermis” value in data set [3] (MH pH 7.4, 16–20 h at 37 °C) was determined as 2 µg/mL; in data set [3] (Table S3, […] MH at pH 8.5) it was 1 µg/mL. In addition, the “MIC S. aureus Newman, […] MH at pH 8.5” value in data set [4] (CSV, […] MH at pH 8.5) was determined as 2 ug/mL. Further, the “MIC S. aureus Newman, full MH at pH 7.4” value in data set [4] (CSV, full MH at pH 7.4) is on record as 2 ug/mL. The “MIC S. aureus Newman” value was determined as 2 µg/mL in data set [4] (MH pH 7.4, 16–20 h at 37 °C) and 2 µg/mL in data set [4] (Table S3, […] MH at pH 8.5). Further, the “MIC S. maltophilia, […] MH at pH 8.5” value in data set [5] (CSV, […] MH at pH 8.5) is recorded as 4 ug/mL. Moreover, in data set [5] (CSV, full MH at pH 7.4), the “MIC S. maltophilia, full MH at pH 7.4” value is recorded as 2 ug/mL. The “MIC S. maltophilia” value in data set [5] (MH pH 7.4, 16–20 h at 37 °C) was found to be 2 µg/mL; in data set [5] (Table S3, […] MH at pH 8.5), 4 µg/mL. Further, in data set [6] (CSV, full MH at pH 7.4), the “MIC B. cenocepacia, full MH at pH 7.4” value is given as greater than 32 ug/mL. In addition, the “MIC B. cenocepacia” value in data set [6] (MH pH 7.4, 16–20 h at 37 °C) was greater than 32 µg/mL. Moreover, the “MIC P. aeruginosa PA14, […] MH at pH 8.5” value in data set [7] (CSV, […] MH at pH 8.5) turned out to be 2 ug/mL. Moreover, the “MIC P. aeruginosa PA14, full MH at pH 7.4” value in data set [7] (CSV, full MH at pH 7.4) was found to be 3 ug/mL. The “MIC P. aeruginosa PA14” value in data set [7] (MH pH 7.4, 16–20 h at 37 °C) is 2 to 4 µg/mL; in data set [7] (Table S3, […] MH at pH 8.5, 16-20 hours at 37 °C), 2 µg/mL. Further, the IC50 in data set [8] was determined as 20 ± 1 µM.
